Eleven molecules from US4006237A, “Tetrahydrocarbostyril derivatives for the prophylaxis of asthma, hayfever and rhinitis” (Beecham Group Limited, priority 1973, dated 1977) can be followed below.

As a reminder, the inhibition in vivo is the change of the read-out against control, counted positive when it falls.

This assay concerns rat PCA response. In words: Rat Passive Cutaneous Anaphylaxis (PCA) test. It is filed as in vivo, rat (male Wistar serum donors; Wistar test rats). Here is the method: Some of the substituted 4-hydroxy-3-nitro-α-pyridones prepared in the previous examples were submitted for biological testing. The test system was the Rat Passive Cutaneous Anaphylaxis (PCA) test described below in (ii).
i. Serum containing heat labile homocytotropic antibody was raised in rats by a method similar to that used by Mota. (I. Mota Immunology 1964, 7, 681).
Male Wistar rats of 250- 300g, were injected intraperitoneally with 0.5ml of Bordatella pertussis vaccine (containing 4 × 10^10 dead organism per ml) and subcutaneously with 0.5ml of an emulsion of 100mg of ovalbumin in 2ml of saline and 3ml of incomplete Freunds' adjuvant. Rats were bled by cardiac puncture on day 18, the blood was pooled and separated and serum stored at -20° C and thawed only once before use.
ii. The P.C.A. test was similar to that described by Ovary and Bier (A. Ovary and O. E. Bier, Proc. Soc. Exp. Biol.Med.1952, 81, 584) and Goose and Blair (J. Goose and A. M. J. N. Blair, Immunology 1969, 16, 769).
0.1ml. of each six twofold serial dilutions of the serum in 0.9% saline were injected intradermally into separate sites on the shaved dorsal surface of 250-350 g Wistar rats. 72 hours later the animals were challenged by i.v. injection of 0.3ml of 1% ovalbumin mixed with 0.1ml of a 5% solution of pontamine sky blue dye both in isotonic saline buffered with pH 7.2 Sorenson buffer (P.B.S.). The rats were killed after 20 minutes and the diameter of the blue wheals at the antibody injection sites were measured. The starting dilution of the serum was adjusted so that there was no response, after challenge, at the site of injection of the highest dilution and a maximum response at the lowest dilution. Typically, six twofold serial dilutions of the serum from 1/4 to 1/128 were used.
Compounds were tested for their ability to reduce the diameter of the wheals at the injection sites of dilutions of antibody which on all the controls have less than maximum response. Amounts of the compounds were administered to rats each amount to a test group of six animals at a specified time prior to intravenous challenge with ovalbumin. The diameters of the blue wheals which developed on the test group of animals were compared with those on a control group of six animals treated in the same way as the test group, but which had not received the compound under test.
% Inhibition of P.C.A. = 100 (1 - (a/b))
a = The mean of the sum of the diameters of the wheels produced in the test group of animals at those antibody sites where all the control group of animals gave less than maximum response.
b = The mean of the sum of diameters of the wheals produced in the control group of animals at those antibody sites where all the animals in the group gave less than the maximum response.
The compounds were administered either as a solution of the free nitro compound or as a solution or suspension in 1% methyl cellulose of the sodium salt.

[1] abbreviates: time 30 mins prior to challenge.
[2] abbreviates: time 60 mins prior to challenge.
Where [3] appears, read: time 10 mins prior to challenge.

For the molecule `O=c1[nH]c2c(c(O)c1[N+](=O)[O-])CCCC2` [Example 1, 4-Hydroxy-3-nitro-5,6,7,8-tetrahydrocarbostyril], for the setting “time 0 mins prior to challenge”, the inhibition in vivo at 25 mg/kg came to 16% and the inhibition in vivo at 100 mg/kg is 70%. Under setting [1], the inhibition in vivo at 25 mg/kg was determined as 15% and the inhibition in vivo at 100 mg/kg stood at 20%.
`CC1CCc2c([nH]c(=O)c([N+](=O)[O-])c2O)C1` (centres unmarked) [Example 2, 4-Hydroxy-7-methyl-3-nitro-5,6,7,8-tetrahydrocarbostyril]: the inhibition in vivo at 25 mg/kg (time 0 mins prior to challenge) is 36% and the inhibition in vivo at 25 mg/kg under setting [1] was 49%. Moreover, the inhibition in vivo at 100 mg/kg reads like this: (time 0 mins prior to challenge) 76%; under setting [1], 40%.
For `O=c1[nH]c2c(c(O)c1[N+](=O)[O-])CCC2` [Example 3, 5,6-Cyclopenteno-4-hydroxy-3-nitro-α-pyridone], for the setting “time 0 mins prior to challenge”, the inhibition in vivo at 25 mg/kg came to 10% and the inhibition in vivo at 100 mg/kg was 28%. Under setting [1], the inhibition in vivo at 25 mg/kg is -20% and the inhibition in vivo at 100 mg/kg amounted to 6%.
Take `O=c1[nH]c2c(c(O)c1[N+](=O)[O-])CCCCC2` [Example 4, 5,6-cycloheptenyl-4-hydroxy-3-nitro-α-pyridone]: for the setting “time 0 mins prior to challenge”, the inhibition in vivo at 25 mg/kg is -10% and the inhibition in vivo at 100 mg/kg is -3%. Further, under setting [2], the inhibition in vivo at 25 mg/kg was determined as 1% and the inhibition in vivo at 100 mg/kg came to 27%.
`CC1Cc2[nH]c(=O)c([N+](=O)[O-])c(O)c2C(C)C1` (centres unmarked) [Example 5, 5,7-dimethyl-4-hydroxy-3-nitro-5,6,7,8-tetrahydrocarbostyril]: under “time 0 mins prior to challenge”, the inhibition in vivo at 25 mg/kg stood at 27% and the inhibition in vivo at 100 mg/kg is 72%. Also, under setting [1], the inhibition in vivo at 25 mg/kg turned out to be 14% and the inhibition in vivo at 100 mg/kg came to 42%.
As for `CC1CCc2[nH]c(=O)c([N+](=O)[O-])c(O)c2C1` (centres unmarked) [Example 6, 4-Hydroxy-6-methyl-3-nitro-5,6,7,8-tetrahydrocarbostyril], where the note is “time 0 mins prior to challenge”, the inhibition in vivo at 25 mg/kg amounted to 1% and the inhibition in vivo at 100 mg/kg turned out to be 24%. Also, under setting [2], the inhibition in vivo at 25 mg/kg amounted to 15% and the inhibition in vivo at 100 mg/kg was found to be 37%.
Turning to `O=c1[nH]c2c(c(O)c1[N+](=O)[O-])CCCCCC2` [Example 7, 5,6-cyclooctenyl-4-hydroxy-3-nitro-α-pyridone], under setting [3], the inhibition in vivo at 25 mg/kg amounted to 17% and the inhibition in vivo at 100 mg/kg was found to be 59%. Under setting [1], the inhibition in vivo at 25 mg/kg is 15% and the inhibition in vivo at 100 mg/kg came out at 37%.
As for `CCn1c2c(c(O)c([N+](=O)[O-])c1=O)CCCC2` [Example 8, 1-Ethyl-4-hydroxy-3-nitro-5,6,7,8-tetrahydrocarbostyril], under “time 0 mins prior to challenge”, the inhibition in vivo at 25 mg/kg was -5% and the inhibition in vivo at 100 mg/kg was 12%. Besides, under setting [1], the inhibition in vivo at 25 mg/kg is 14% and the inhibition in vivo at 100 mg/kg amounted to 75%.
As for `CCCn1c2c(c(O)c([N+](=O)[O-])c1=O)CCCC2` [Example 9, 4-Hydroxy-3-nitro-1-n-propyl-5,6,7,8-tetrahydrocarbostyril], under “time 0 mins prior to challenge”, the inhibition in vivo at 25 mg/kg worked out at 51% and the inhibition in vivo at 100 mg/kg was 18%. Also, under setting [1], the inhibition in vivo at 25 mg/kg turned out to be 25% and the inhibition in vivo at 100 mg/kg was 69%.
For the molecule `CC(C)n1c2c(c(O)c([N+](=O)[O-])c1=O)CCCC2` [Example 10, 4-Hydroxy-1-isopropyl-3-nitro-5,6,7,8-tetrahydrocarbostyril], where the note is “time 0 mins prior to challenge”, the inhibition in vivo at 25 mg/kg was 5% and the inhibition in vivo at 100 mg/kg is 8%. Moreover, under setting [1], the inhibition in vivo at 25 mg/kg was determined as 0% and the inhibition in vivo at 100 mg/kg is 16%.
`CCn1c2c(c(O)c([N+](=O)[O-])c1=O)CCC(C)C2` (centres unmarked) [Example 11, 1-Ethyl-4-hydroxy-7-methyl-3-nitro-5,6,7,8-tetrahydrocarbostyril]: where the note is “time 0 mins prior to challenge”, the inhibition in vivo at 25 mg/kg came out at 8% and the inhibition in vivo at 100 mg/kg is 31%. Also, under setting [1], the inhibition in vivo at 25 mg/kg was determined as 38% and the inhibition in vivo at 100 mg/kg was 57%.
